Numbered stars: 1 amine (or outer) side, 2 acyl side, 3 side chain; on linkers, the order of the positions; unused ones are H or OH. Bridge positions count the residues as written; N and C are the ends. Square brackets hold non-standard residues; d marks the D form. Peptide text beside a SMILES is read from it. * marks the point of attachment. ξ: configuration not given here. Phe(3-CF3) = N[C@@H](Cc1cccc(C(F)(F)F)c1)C(=O)O; Ala(morpholin-4-yl) = N[C@@H](CN1CCOCC1)C(=O)O; Phe(4-COOH) = N[C@@H](Cc1ccc(C(=O)O)cc1)C(=O)O; Bip = N[C@@H](Cc1ccc(-c2ccccc2)cc1)C(=O)O; Phe(3-Me) = Cc1cccc(C[C@H](N)C(=O)O)c1; Cha = N[C@@H](CC1CCCCC1)C(=O)O; Thr(3ξ) = CC(O)[C@H](N)C(=O)O; Suc = O=C(CCC(=O)[*:2])[*:1]; Carboxymethyl = O=C(O)C*; NMeA = CN[C@@H](C)C(=O)O; Orn = NCCC[C@H](N)C(=O)O; Dab = NCC[C@H](N)C(=O)O; Dap = NC[C@H](N)C(=O)O
The compounds below were run against T1, Alexa fluor-647 labeled human PD-L1-Ig binding to Jurkat cell line over-expressing human PD-1 (Homo sapiens, UniProt Q15116) (assay: Jurkat-PD-1 Cell Binding High-Content Screening Assay (CBA): Method 3 (Alexa fluor-647 labeled PD-L1-Ig)). Settings: Jurkat-PD-1 cells, Alexa fluor-647 labeled PD-L1-Ig 177 nM; head μM; read-out: CBA Method 3 μM.
T1 construct: expressed in transfected cells; host or cells: Jurkat
Outline: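 Readout by high-content imaging of PFA-fixed, Hoechst-stained cells after 1 h with 177 nM (final) Alexa fluor-647 PD-L1-Ig. Compound was added first to hPD-1 Jurkat cells in RPMI plus 10% FCS for 2 h at 37 °C.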

T1 sequence (Q15116 25-288): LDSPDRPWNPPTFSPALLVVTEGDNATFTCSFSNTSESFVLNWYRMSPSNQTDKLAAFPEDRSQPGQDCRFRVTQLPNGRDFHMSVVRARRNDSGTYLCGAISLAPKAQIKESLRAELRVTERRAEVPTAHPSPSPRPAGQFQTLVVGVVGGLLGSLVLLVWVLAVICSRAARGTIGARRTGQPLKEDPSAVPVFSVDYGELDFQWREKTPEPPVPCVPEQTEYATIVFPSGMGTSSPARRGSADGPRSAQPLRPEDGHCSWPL

| IC50 [µM] | SMILES |
| --- | --- |
| 0.02 | Cc1cccc(C[C@@H]2NC(=O)[C@H](CC(=O)O)NC(=O)[C@H](Cc3ccc(C(=O)O)cc3)NC(=O)[C@H](C)NC(=O)CSC[C@@H](C(=O)N[C@@H](CCN)C(N)=O)NC(=O)[C@H](CCC(=O)O)NC(=O)[C@H](C(C)C)NC(=O)[C@H](CC3CCCCC3)NC(=O)[C@H](CCN)NC(=O)[C@@H](CC(C)C)NC(=O)[C@H](C)N(C)C(=O)[C@H](Cc3ccc(C(=O)O)cc3)NC(=O)[C@H](Cc3ccc(-c4ccccc4)cc3)NC(=O)[C@H](Cc3ccc(C(=O)O)cc3)NC2=O)c1 [Example 5136] ({CH2CO}-A[Phe(4-COOH)]D[Phe(3-Me)][Phe(4-COOH)][Bip][Phe(4-COOH)][NMeA][dL][Dab][Cha]VEC[Dab]-NH2; thioether N-14) |
| 0.03 | Cc1cccc(C[C@@H]2NC(=O)[C@H](CC(=O)O)NC(=O)[C@H](Cc3ccc(C(=O)O)cc3)NC(=O)[C@H](C)NC(=O)CSC[C@@H](C(=O)N[C@@H](CCN)C(N)=O)NC(=O)[C@H](CCC(=O)O)NC(=O)[C@H](C(C)C)NC(=O)[C@H](CC3CCCCC3)NC(=O)[C@H](CCN)NC(=O)[C@@H](CC(C)C)NC(=O)[C@H](C)N(C)C(=O)[C@H](Cc3ccc(OCC(=O)O)cc3)NC(=O)[C@H](Cc3ccc(-c4ccccc4)cc3)NC(=O)[C@H](Cc3ccc(C(=O)O)cc3)NC2=O)c1 [Example 5138] ({CH2CO}-A[Phe(4-COOH)]D[Phe(3-Me)][Phe(4-COOH)][Bip]Y(Carboxymethyl)[NMeA][dL][Dab][Cha]VEC[Dab]-NH2; thioether N-14) |
| 0.03 | Cc1cccc(C[C@@H]2NC(=O)[C@H](CC(=O)O)NC(=O)[C@H](Cc3ccc(OCC(=O)O)cc3)NC(=O)[C@H](C)NC(=O)CSC[C@@H](C(=O)N[C@@H](CCN)C(N)=O)NC(=O)[C@H](CCC(=O)O)NC(=O)[C@H](C(C)C)NC(=O)[C@H](CC3CCCCC3)NC(=O)[C@H](CCN)NC(=O)[C@@H](CC(C)C)NC(=O)[C@H](C)N(C)C(=O)[C@H](Cc3ccc(OCC(=O)O)cc3)NC(=O)[C@H](Cc3ccc(-c4ccccc4)cc3)NC(=O)[C@H](Cc3ccc(OCC(=O)O)cc3)NC2=O)c1 [Example 5139] ({CH2CO}-AY(Carboxymethyl)D[Phe(3-Me)]Y(Carboxymethyl)[Bip]Y(Carboxymethyl)[NMeA][dL][Dab][Cha]VEC[Dab]-NH2; thioether N-14) |
| 0.01 | CC(C)C[C@@H]1NC(=O)[C@H](Cc2c[nH]c3ccccc23)NC(=O)[C@H](CC(=O)O)NC(=O)[C@H](Cc2ccc(C(=O)O)cc2)NC(=O)[C@H](Cc2ccc(OCC(=O)O)cc2)NC(=O)CSC[C@@H](C(=O)N[C@@H](CCCN)C(N)=O)NC(=O)[C@H](C(C)C)NC(=O)[C@H]([C@@H](C)O)NC(=O)[C@H](CC2CCCCC2)NC(=O)[C@H](CCN)NC(=O)[C@@H](CC(C)C)NC(=O)[C@H](C)N(C)C(=O)[C@H](C(C)C)NC(=O)[C@H](Cc2ccc(-c3ccccc3)cc2)NC1=O [Example 5140] ({CH2CO}-Y(Carboxymethyl)[Phe(4-COOH)]DWL[Bip]V[NMeA][dL][Dab][Cha]TVC[Orn]-NH2; thioether N-14) |
| 0.02 | CC(C)C[C@@H]1NC(=O)[C@H](Cc2c[nH]c3ccccc23)NC(=O)[C@H](CC(=O)O)NC(=O)[C@H](Cc2ccc(C(=O)O)cc2)NC(=O)[C@H](Cc2ccc(OCC(=O)O)cc2)NC(=O)CSC[C@@H](C(=O)N[C@@H](CCN)C(N)=O)NC(=O)[C@H](C(C)C)NC(=O)[C@H]([C@@H](C)O)NC(=O)[C@H](CC2CCCCC2)NC(=O)[C@H](CCN)NC(=O)[C@@H](CC(C)C)NC(=O)[C@H](C)N(C)C(=O)[C@H](C(C)C)NC(=O)[C@H](Cc2ccc(-c3ccccc3)cc2)NC1=O [Example 5141] ({CH2CO}-Y(Carboxymethyl)[Phe(4-COOH)]DWL[Bip]V[NMeA][dL][Dab][Cha]TVC[Dab]-NH2; thioether N-14) |

Same assay, conditions: Jurkat-PD-1 cells, Alexa fluor-647 labeled PD-L1-Ig 177 nM; nM; read-out: CBA Method 3

| IC50 [µM] | SMILES |
| --- | --- |
| 0.0044 | Cc1cccc(C[C@@H]2NC(=O)[C@H](CC(=O)O)NC(=O)[C@H](Cc3ccc(OCC(=O)O)cc3)NC(=O)[C@H](C)NC(=O)CSC[C@@H](C(=O)N[C@@H](CCN)C(N)=O)NC(=O)[C@H](CCC(=O)O)NC(=O)[C@H](C(C)C)NC(=O)[C@H](CC3CCCCC3)NC(=O)[C@H](CCN)NC(=O)[C@@H](CC(C)C)NC(=O)[C@H](C)N(C)C(=O)[C@H](Cc3ccc(C(=O)O)cc3)NC(=O)[C@H](Cc3ccc(-c4ccccc4)cc3)NC(=O)[C@H](Cc3ccc(C(=O)O)cc3)NC2=O)c1 [Example 5137] ({CH2CO}-AY(Carboxymethyl)D[Phe(3-Me)][Phe(4-COOH)][Bip][Phe(4-COOH)][NMeA][dL][Dab][Cha]VEC[Dab]-NH2; thioether N-14) |
| 0.0033 | CC(C)C[C@H]1NC(=O)[C@H](C)N(C)C(=O)[C@H](Cc2ccc(C(=O)O)cc2)NC(=O)[C@H](Cc2ccc(-c3ccccc3)cc2)NC(=O)[C@H](Cc2ccc(C(=O)O)cc2)NC(=O)[C@H](Cc2cccc(C(F)(F)F)c2)NC(=O)[C@H](CC(=O)O)NC(=O)[C@H](Cc2ccc(C(=O)O)cc2)NC(=O)[C@H](CN2CCOCC2)NC(=O)CSC[C@@H](C(=O)N[C@@H](CCN)C(N)=O)NC(=O)[C@H](CNC(=O)CCC(=O)O)NC(=O)[C@H](C(C)C)NC(=O)[C@H](CC2CCCCC2)NC(=O)[C@H](CCN)NC1=O [Example 5142] ({CH2CO}-[Ala(morpholin-4-yl)][Phe(4-COOH)]D[Phe(3-CF3)][Phe(4-COOH)][Bip][Phe(4-COOH)][NMeA][dL][Dab][Cha]V[Dap](Suc)C[Dab]-NH2; thioether N-14) |
| 0.007 | CC(C)C[C@H]1NC(=O)[C@H](C)N(C)C(=O)[C@H](Cc2ccc(OCC(=O)O)cc2)NC(=O)[C@H](Cc2ccc(-c3ccccc3)cc2)NC(=O)[C@H](Cc2ccc(C(=O)O)cc2)NC(=O)[C@H](Cc2cccc(C(F)(F)F)c2)NC(=O)[C@H](CC(=O)O)NC(=O)[C@H](Cc2ccc(OCC(=O)O)cc2)NC(=O)[C@H](C(C)O)NC(=O)CSC[C@@H](C(=O)N[C@@H](CCN)C(N)=O)NC(=O)[C@H]([C@@H](C)O)NC(=O)[C@H](C(C)C)NC(=O)[C@H](CC2CCCCC2)NC(=O)[C@H](CCN)NC1=O (stereo partly drawn) [Example 5143] ({CH2CO}-[Thr(3ξ)]Y(Carboxymethyl)D[Phe(3-CF3)][Phe(4-COOH)][Bip]Y(Carboxymethyl)[NMeA][dL][Dab][Cha]VTC[Dab]-NH2; thioether N-14) |
| 0.0097 | CC(C)C[C@H]1NC(=O)[C@H](C)N(C)C(=O)[C@H](Cc2ccc(C(=O)O)cc2)NC(=O)[C@H](Cc2ccc(-c3ccccc3)cc2)NC(=O)[C@H](Cc2ccc(C(=O)O)cc2)NC(=O)[C@H](Cc2cccc(C(F)(F)F)c2)NC(=O)[C@H](CC(=O)O)NC(=O)[C@H](Cc2ccc(C(=O)O)cc2)NC(=O)[C@H](CN2CCOCC2)NC(=O)CSC[C@@H](C(=O)N[C@@H](CCN)C(N)=O)NC(=O)[C@H](CNC(=O)CCC(=O)O)NC(=O)[C@H](C(C)C)NC(=O)[C@H](CC2CCCCC2)NC(=O)[C@H](CCN)NC1=O [Example 5144] ({CH2CO}-[Ala(morpholin-4-yl)][Phe(4-COOH)]D[Phe(3-CF3)][Phe(4-COOH)][Bip][Phe(4-COOH)][NMeA][dL][Dab][Cha]V[Dap](Suc)C[Dab]-NH2; thioether N-14) |
